Experiments:
miR-126 = miR-126 expression in K562 and MV4-11 cells with miR-126 inhibitors or mimics; assay type: cell-based; conditions: 500 nM, 24 hours
Method: FIGS. 26A-26E. Effective knockdown of miR-126 with miR-126 inhibitors conjugated with CpG, GpC and PS, and effective over-expression with miR-126 mimics in K562 and MV4-11 cells. K562 and MV4-11 cells were treated with miR-126 inhibitors conjugated with CpG, GpC, PS (FIGS. 26A-26B) or miR-126 mimics (615, 616 and 617) (FIGS. 26C-26D) (500 nM) for 24 hours, and miR-126 expression was measured in these cells. […] FIG. 26E) Tabulation of sequence set forth herein.
Effective knockdown of miR-126 with miR-126 inhibitors conjugated with CpG, GpC and PS, and effective over-expression with miR-126 mimics in K562 and MV4-11 cells. K562 and MV4-11 cells were treated with miR-126 inhibitors conjugated with CpG, GpC, PS (FIGS. 26A-26B) or miR-126 mimics (615, 616 and 617) (FIGS. 26C-26D) (500 nM) for 24 hours, and miR-126 expression was measured in these cells.

IRAK1 (miR146a target) = experiment: Immunoblot of downstream target IRAK1; assay type: cell-based, mouse or human; conditions: for IRAK1 (downstream target regulation): 500 nM, 48 hrs, RAW264.7 or A20 cells
Method: (§1) FIGS. 20A-20D. Effects of CpG-anti-miRNAs on downstream targets. […] Mouse RAW264.7 or human MV4-11 cells were incubated with 250 nM or 500 nM of CpG-anti-miR155, CpG-anti-miR125b, or CpG-anti-miR146a, or 500 nM of CpG-scramble for 48 h, then the cell lysates were collected and electrophoresed and immunoblotted by antibodies against SHIP1 (miR155 target) (FIG. 20A), IRF4 (miR125b target) (FIG. 20B), or IRAK1 (miR146a target) (FIG. 20C). The band intensities were normalized against β-actin and quantified. Fold induction over the control protein levels are indicated below the blot. FIG. 20D) MV4-11 cells were incubated with 500 nM of CpG-anti-miR155, CpG-antimiR125b, CpG-anti-miR146a, or CpG-scramble for 24 h, then cell lysates were collected and electrophoresed and immunoblotted to detect activated caspase 3 indicating induction of apoptosis.
(§2) FIGS. 21A-21H. Comparing the inhibition effects of CpG-anti-miR and GpC-anti-miR. […] The cells were incubated with 100 nM CpG-anti-miRs or GpC-anti-miRs for 18 hrs. […] RAW264.7 (FIGS. 21E,21G) or A20 cells (FIGS. 21F,21H) were incubated with 500 nM of CpG-anti-miR155, GpC-anti-miR155, or CpG-anti-miR146a, GpC-anti-miR146a for 48 hrs, then the cell lysates were collected and immunoblotted using antibodies against SHIP1 (miR155 target) or IRAK1 (miR146a target)
(§3) Mouse RAW264.7 or human MV4-11 cells were incubated with 250 nM or 500 nM of CpGanti-miR155, CpG-anti-miR125b, or CpG-anti-miR146a, or 500 nM of CpG-scramble for 48 h, then the cell lysates were collected and electrophoresed and immunoblotted by antibodies against SHIP1 (miR155 target) (FIG. 20A), IRF4 (miR125b target) (FIG. 20B), or IRAK1 (miR146a target) (FIG. 20C). The band intensities were normalized against β-actin and quantified. Fold induction over the control protein levels are indicated below the blot. FIG. 20D) MV4-11 cells were incubated with 500 nM of CpG-anti-miR155, CpG-antimiR125b, CpG-anti-miR146a, or CpG-scramble for 24 h, then cell lysates were collected and electrophoresed and immunoblotted to detect activated caspase 3 indicating induction of apoptosis. […]

miR-146a = experiment: Mature miR-146a expression by TAQMAN qPCR; assay type: cell-based, human and mouse; conditions: 100 nM
Method: FIGS. 19A-19H. Inhibitory effects of CpG-anti-miR146a. […] Mouse RAW264.7 (macrophages) (FIG. 19A) and DC2.4 (dendritic cells) (FIG. 19B) as well as human MV4-11 (FIG. 19C) and KG1a AML (FIG. 19D) cells were incubated with 100 nM CpG-anti-miR146a or CpG-scrambled RNA (negative control) for 18 h and then treated with 1 vg/ml LPS for 4 h. KG1a, MOLM13 (FIG. 19E), and MOLM14 (FIG. 19F) cells were incubated with 100 nM CpG-anti-miR146a or CpG-scrambled RNA for 18 h. FIGS. 19G-19H) Mouse CMM AML cells (FIG. 19G) and A20 lymphoma cells (FIG. 19H) were incubated with 100 nM CpG-miR146a mimic for 18 h. Mature miR-146a expression was measured using TAQMAN® qPCR assay and normalized to snoRNA234 levels. miR-146a expression level in untreated samples was set as 1.0. Data are shown as means±SEM (n=3). *P<0.05.
as §2
The cells were incubated with 100 nM CpG-anti-miRs or GpC-anti-miRs for 18 hrs. […] RAW264.7 (FIGS. 21E,21G) or A20 cells (FIGS. 21F,21H) were incubated with 500 nM of CpG-anti-miR155, GpC-anti-miR155, or CpG-anti-miR146a, GpC-anti-miR146a for 48 hrs, then the cell lysates were collected and immunoblotted using antibodies against SHIP1 (miR155 target) or IRAK1 (miR146a target).

[1] = test system: Human immune cells (CD14+ monocytes, CD1c+ mDCs, CD3+ T cells and CD19+ B cells); experiment: Uptake of Cy3-labeled CpG-anti-miRs by human immune cells, flow cytometry; assay type: cell-based; conditions: for intracellular uptake: Cy3-labeled, human immune cells
Method: FIGS. 16A-16B. Cell-selective uptake of CpG-anti-miR146a. […] CpG-anti-miR146a was Cy3-labeled to detect the intracellular uptake by target cells using flow cytometry. FIG. 16A) Human immune cells were incubated with indicated concentrations of CpG-anti-miR146acY3 for 1 hr. The uptake by CD14+ monocytes, CD1c+ mDCs, CD3+ T cells and CD19+ B cells was measured using flow cytometry.
where * indicates a phosphorothioate linkage, mN indicates a 2′OMe modified nucleotide, and x indicates a linker described herein. CpG-anti-miRNAs were Cy3-labeled to detect the intracellular uptake by target cells using flow cytometry. […] Treatment of these compounds reduces the corresponding miR expression in human and mouse myeloid cells (FIGS. 17A-17F, 18A-18F, 19A-19H).

[2] = test system: human AML cells KG1a, MOLM13, and MOLM14; experiment: Uptake of Cy3-labeled CpG-anti-miR146a by cultured AML cells; assay type: cell-based; conditions: even at low concentrations
miR-155 = experiment: Mature miR-155 expression by TAQMAN qPCR; assay type: cell-based, human and mouse; conditions: 100 nM
Method: FIGS. 17A-17F. Inhibitory effects of CpG-anti-miR155. […] Mouse RAW264.7 (macrophages) (FIG. 17A) and DC2.4 (dendritic cells) (FIG. 17B) as well as human MV4-11 AML cells (FIG. 17C) were incubated with 100 nM CpG-anti-miR155 or CpG-scrambled RNA (negative control) for 18 h and then treated with 1 vg/ml LPS for 4 h. KG1a (FIG. 17D), MOLM13 (FIG. 17E), and MOLM14 (FIG. 17F) cells were incubated with 100 nM CpG-anti-miR155 or CpG-scrambled RNA for 18 h. Mature miR-155 expression was measured using TAQMAN® qPCR assay and normalized to snoRNA234 levels. miR-155 expression level in untreated samples was set as 1.0. Data are shown as means±SEM (n=3). *P<0.05.
as §2
The cells were incubated with 100 nM CpG-anti-miRs or GpC-anti-miRs for 18 hrs. […]

SHIP1 (miR155 target) = experiment: Immunoblot of downstream target SHIP1; assay type: cell-based, mouse or human
Method: as §1
FIGS. 21A-21H. Comparing the inhibition effects of CpG-anti-miR and GpC-anti-miR. […]
Mouse RAW264.7 or human MV4-11 cells were incubated with 250 nM or 500 nM of CpGanti-miR155, CpG-anti-miR125b, or CpG-anti-miR146a, or 500 nM of CpG-scramble for 48 h, then the cell lysates were collected and electrophoresed and immunoblotted by antibodies against SHIP1 (miR155 target) (FIG. 20A), IRF4 (miR125b target) (FIG. 20B), or IRAK1 (miR146a target) (FIG. 20C). The band intensities were normalized against β-actin and quantified. […]

IRF4 (miR125b target) = experiment: Immunoblot of downstream target IRF4; assay type: cell-based, mouse or human; conditions: 250 nM or 500 nM, 48 h; RAW264.7 or MV4-11 cells
Method: as §1
as §3, with “blot.” for “blot. FIG. 20D) MV4-11 cells were incubated with 500 nM of CpG-anti-miR155, CpG-antimiR125b, CpG-anti-miR146a, or CpG-scramble for 24 h, then cell lysates were collected and electrophoresed and immunoblotted to detect activated caspase 3 indicating induction of apoptosis.”

miR-125b = experiment: Mature miR-125b expression by TAQMAN qPCR; assay type: cell-based, human and mouse; conditions: 100 nM, 18 h; various cell models
Method: FIGS. 18A-18F. Inhibitory effects of CpG-anti-miR125b. […] RAW264.7 (FIG. 18A), DC2.4 (FIG. 18B), and MV4-11 (FIG. 18C) cells were incubated with 100 nM CpG-anti-miR125b or CpG-scrambled RNA (negative control) for 18 h and then treated with 1 vg/mILPS for 4 h. Human AML cells—KG1a (FIG. 18D), MOLM13 (FIG. 18E), and MOLM14 (FIG. 18F)—were incubated with 100 nM CpG-anti-miR125b or control CpG-scrambled RNA for 18 h. Mature miR-125b expression was measured using TAQMAN® qPCR assay and normalized to snoRNA234 levels. miR-125b expression level in untreated samples was set as 1.0. Data are shown as means±SEM (n=3). *P<0.05.

[3] = 250 nM or 500 nM, 48 h, RAW264.7 or MV4-11 cells
[4] = 18 h, human and mouse myeloid cells

In the case of “5′ G*G*T*G*C*A*T*C*G*A*T*G*C*A*G*G*G*G*G*G (SEQ ID NO: 3) xxxxx mC*mG*mC* mA*mU*mU* mA*mU*mU* mA*mC*mU* mC*mA*mC* mG*mG*mU* mA*mC*mG*mA (SEQ ID NO: 48) 3′ [completely PS-modified oligo]”, the “miR-126 expression (knockdown by inhibitors)” value (miR-126) is reported as “succeeds in blocking miR126”.

“5′ G*GT. GCA TGC ATG CAG G*G*G*G*G (SEQ ID NO: 2) xxxxx mCmGmC mAmUmU mAmUmU mAmCmU mCmAmC mGmGmU mAmCmG mA (SEQ ID NO: 17) 3′ [GpC]” was tested, and the “miR-126 expression (knockdown by inhibitors)” value (miR-126) was “succeeds in blocking miR126”.

“5′ G*G*T GCA TCG ATG CAGG*G*G* G*G xxxxx mC*mC*mC*mA*mU*mG*mG*mA*mA*mU*mU*mC*mA*mG*mU*mU*mC*mU*mC*mA 3′ [CpG-anti-miR146a]” was tested, and the IRAK1 protein level (IRAK1 (miR146a target); [3]) was “upregulated”, the “IRAK1 (downstream target regulation)” value (IRAK1 (miR146a target)) was “regulates downstream targets” and the miR-146a expression (miR-146a; [4]) was “reduces miR-146a expression”. For the same substance, the miR-146a expression (miR-146a; 18 hrs, RAW264.7 and A20 cells) was “reduces miR155 or miR-146a expression”, the intracellular uptake [1] was “uptake of these compounds was observed” and the “internalization by target immune and leukemic cells” value ([1]; without any transfection reagents) was “Dose and time dependent internalization”. The “internalization by cultured AML cells” value [2] was “rapidly internalize”.

For “G*G*T GCA TGC ATG CAGG*G*G* G*G (SEQ ID NO: 2) xxxxx mC*mC*mC*mA*mT*mG*mG*mA*mA*mT*mT*mC*mA*mG*mT*mT*mC*mT*mC*mA (SEQ ID NO: 36) 3′ [GpC-anti-miR146a]”, the “IRAK1 (downstream target regulation)” value (IRAK1 (miR146a target)) was “regulates downstream targets” and the miR-146a expression (miR-146a; 18 hrs, RAW264.7 and A20 cells) was “reduces miR155 or miR-146a expression”.

For “5′G*G*T GCA TCG ATG CAGG*G*G* G*G xxxxx mA*mC*mC*mC*mC*mU*mA*mU*mC*mA*mC*mA*mA*mU*mU*mA*mG*mC*mA*mU*mU*mA*mA 3′ [CpG-anti-miR155]”, the miR-155 expression (miR-155; [4]) was “reduces miR-155 expression”, the miR155 expression (miR-155; 18 hrs, RAW264.7 and A20 cells) was “reduces miR155 or miR-146a expression” and the SHIP1 protein level (SHIP1 (miR155 target); [3]) was “upregulated”. For the same substance, the “SHIP1 (downstream target regulation)” value (SHIP1 (miR155 target); 500 nM, 48 hrs, RAW264.7 or A20 cells) was “regulates downstream targets” and the intracellular uptake [1] was “uptake of these compounds was observed”.

With “5′ G*G*T GCA TCG ATG CAGG*G*G* G*G xxxxx mU*mC*mA*mC*mA*mA*mG*mU*mU*mA*mG*mG*mG*mU*mC*mU*mC*mA*mG*mG*mG*mA 3′ [CpG-anti-miR125b]” the “IRF4 protein level (downstream target regulation)” value (IRF4 (miR125b target)) was “regulate downstream targets”, the miR-125b expression (miR-125b) was “reduces miR-125b expression” and the intracellular uptake [1] was “uptake of these compounds was observed”.
